Measurements published in PubChem BioAssay (NCI).
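Assay format: 96-well plates, 48-hour exposure. TGI: total growth inhibition.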

Assays:
Experiment in all cases: DTP human tumour cell line panel, 48 h
A549 NSCLC = system: A549 NSCLC
BT-549 breast = system: BT-549 breast
HCT-116 colon = system: HCT-116 colon
HS 578T breast = system: HS 578T breast
IGROV1 ovarian = system: IGROV1 ovarian
KM12 colon = system: KM12 colon
M14 melanoma = system: M14 melanoma
MCF7 breast = system: MCF7 breast
MDA-N = system: MDA-N
MOLT-4 leukemia = system: MOLT-4 leukemia
NCI-H23 lung = system: NCI-H23 lung
NCI-H460 lung = system: NCI-H460 lung
OVCAR-4 ovarian = system: OVCAR-4 ovarian
RXF 393 renal = system: RXF 393 renal
SK-MEL-28 melanoma = system: SK-MEL-28 melanoma
TK-10 renal = system: TK-10 renal
UACC-257 melanoma = system: UACC-257 melanoma
UACC-62 melanoma = system: UACC-62 melanoma
HOP-92 NSCLC = system: HOP-92 NSCLC
A498 renal = system: A498 renal

Row | Compound | TGI (A549 NSCLC) [µM] | TGI (BT-549 breast) [µM] | TGI (HCT-116 colon) [µM] | TGI (HS 578T breast) [µM] | TGI (IGROV1 ovarian) [µM] | TGI (KM12 colon) [µM] | TGI (M14 melanoma) [µM] | TGI (MCF7 breast) [µM] | TGI (MDA-N) [µM] | TGI (MOLT-4 leukemia) [µM] | TGI (NCI-H23 lung) [µM] | TGI (NCI-H460 lung) [µM] | TGI (OVCAR-4 ovarian) [µM] | TGI (RXF 393 renal) [µM] | TGI (SK-MEL-28 melanoma) [µM] | TGI (TK-10 renal) [µM] | TGI (UACC-257 melanoma) [µM] | TGI (UACC-62 melanoma) [µM] | TGI (HOP-92 NSCLC) [µM] | TGI (A498 renal) [µM]
1 | COc1ccc(Cn2c(=O)c(OC)c(C)c3cc4ccccc4cc32)cc1 | > 100 | > 100 | 43 | > 100 | 57 | > 100 | > 100 | > 100 | > 100 | 53 | 77.5 | 36.8 | > 100 | > 100 | > 100 | 70.8 | 9.02 | 69.9 | – | –
2 | Cc1nc2ccc(Br)cc2c(=O)n1-c1nnc(C(C)(C)C)s1 | > 10 | – | > 10 | > 10 | > 10 | > 10 | > 10 | > 10 | > 10 | > 10 | > 10 | > 10 | > 10 | > 10 | > 10 | > 10 | > 10 | > 10 | > 10 | –
3 | O=C1/C(=C\c2ccc([N+](=O)[O-])cc2)N(S(=O)(=O)c2ccccc2)c2ncccc21 | > 100 | 32.7 | 43.1 | 81.3 | 36.8 | 44.3 | 41.2 | > 100 | 45.3 | 13.5 | 42.1 | 38.3 | – | 37 | 41.8 | 31.9 | 42.8 | 26 | – | –
4 | O=C1NC(=S)N/C1=C\c1cccs1 | > 100 | > 100 | > 100 | > 100 | > 100 | > 100 | > 100 | > 100 | > 100 | > 100 | > 100 | – | > 100 | > 100 | > 100 | > 100 | – | > 100 | – | –
5 | COC(=O)[C@@H]1C=C[C@H](OC2OC(COC(C)=O)C(OC(C)=O)C(OC(C)=O)C2OC(C)=O)n2c(=O)n(-c3ccccc3)c(=O)n21 (stereo partly specified) | 30.8 | 6.26 | 3.82 | 45.8 | 12 | 19.6 | 5.77 | – | 7.41 | 5.19 | 14 | 35.8 | 3.22 | 4.12 | 5.59 | 3.74 | 5.07 | 8.89 | 3.59 | 20
6 | CC(=O)SCCC(NC(=S)Nc1ccccc1)P(=O)(Oc1ccccc1)Oc1ccccc1 (stereo unspecified) | > 100 | – | > 100 | > 100 | > 100 | > 100 | > 100 | > 100 | > 100 | > 100 | > 100 | > 100 | > 100 | > 100 | > 100 | > 100 | > 100 | > 100 | > 100 | –
7 | CC12C=CC(C)(C3C(=O)C4C(C(=O)C31)C1(C)C=CC4(C)S1=O)S2=O (stereo unspecified) | > 100 | > 100 | – | > 100 | > 100 | > 100 | > 100 | – | > 100 | – | > 100 | > 100 | – | > 100 | – | > 100 | > 100 | > 100 | – | –
8 | COc1cc2c(cc1OCCCCCCCCCCN1C(=O)c3cccc4cccc(c34)C1=O)N=C[C@@H]1CCCN1C2=O | 82.4 | 20.9 | > 100 | 75.3 | 18.4 | 50.2 | 54.6 | 9.26 | 30 | 5.76 | 22.4 | 78 | 6.11 | 10.1 | 33 | > 100 | 37.3 | 24.8 | – | –
9 | CCCCC1(NN=C2CCCCC2)C(=O)N(c2ccccc2)N(c2ccccc2)C1=O | > 100 | > 100 | > 100 | > 100 | > 100 | > 100 | > 100 | > 100 | > 100 | 66 | > 100 | > 100 | > 100 | > 100 | > 100 | > 100 | > 100 | > 100 | – | –
10 | Cc1ccc(-n2[nH]nc(C(N)=O)c2=O)cc1 | > 100 | > 100 | > 100 | > 100 | > 100 | > 100 | > 100 | > 100 | > 100 | > 100 | > 100 | > 100 | > 100 | > 100 | > 100 | > 100 | > 100 | > 100 | – | –
11 | COC(=O)[C@@H]1C[C@H]2OC(=O)CC[C@]2(C)O[C@H]1[C@H]1O[C@@](C)(O)CCC[C@H]1C | > 50 | > 50 | > 50 | > 50 | > 50 | > 50 | > 50 | > 50 | > 50 | > 50 | > 50 | > 50 | > 50 | > 50 | > 50 | > 50 | > 50 | > 50 | – | –
